In patent publication US20120095063A1, “METHODS AND COMPOSITIONS FOR TREATMENT OF ISCHEMIC CONDITIONS AND CONDITIONS RELATED TO MITOCHONDRIAL FUNCTION” (priority 2009, published 2012):

Legend:
[1] = tested on: myocardial ischemia-reperfusion (IR) injury; assay: Infarct size in rat model of myocardial ischemia-reperfusion (IR) injury; assay type: in vivo; conditions: 45 min ischemia, Epi 0.5 mg/kg and/or Nico 33 f× g/kg IV, repeated low dose, infarct size 48 h after IR
Method: The general methods for the implementation of the rat myocardial IR model are detailed elsewhere. The total time of myocardial ischemia was 45 min Dx-EPI (3 mg/kg) was mixed in saline solution and given IV via the jugular vein. Control animals received dextran saline solution injections. Infarct size was examined 48 h after IR using established procedures.
The general methods for the implementation of the rat myocardial IR model are described herein. The total time of myocardial ischemia was 45 min Treatment was administered a total of 1, 2 or 3 times. The initial dose was given15 min prior to reperfusion and then at 12 (in the case of 2× and 3× dosing) and again at 24 h (in the case of 3× dosing) after reperfusion. Epi (0.5 mg/kg) and/or Nico (33 f× g/kg) were mixed in water and given IV using the jugular vein. Control animals only received water injections. Infarct size was examined 48 h after IR using established procedures.

[2] = tested on: mitochondrial swelling (damage) induced by high calcium; assay: Calcium-induced mitochondrial swelling, EPI and NICO co-treatment, isobolographic analysis; assay type: biochemical; conditions: rat left ventricle mitochondria; 33 μM CaCl2; 535 nm, 30 min
Method: To determine the effect that (-)-epicatechin (EPI) and nicorandil (NICO) co-treatment has on mitochondrial swelling (damage) induced by high calcium, EPI or NICO, and EPI+NICO protective effects against calcium induced mitochondrial damage (swelling), were evaluated by monitoring changes in optical density (OD, light absorbance): Hearts from male rats were excised and weighed. Left ventricles were homogenized (0.1 g/mL) in solution A (Sucrose 2M, EDTA 0.01M, Hepes 0.5M: pH=7.4), centrifuged 10 min (800×g), 4° C., the supernatant was centrifuged 10 min (8000×g), 4° C. and the pellet was re-suspended in solution B (Sucrose 2M, EDTA 0.01M, Tris 0.5M-H2PO4-50 mM: pH=7.4) and centrifuged 10 min (10000×g), 4° C. Pellet was re-suspended in 10 mL of solution C (Sucrose 2M, EDTA 0.01M, Tris 0.5M-H2PO4-50 mM, Succinate 1M: pH=7.4. 33 μM of CaCl2 was then, added in order to induce mitochondrial […] (swelling measured through absorbace changes at 535 nm, monitored continuosly during 30 min Dose-response effects on mitochondrial swelling to EPI and NICO treatment were pursued.

[3] = tested on: human skeletal muscle myocytes (HSKM cells); assay: Oxygen consumption rate in primary human skeletal muscle myocytes; assay type: cell-based; conditions: 48 hours, 300 nM FCCP
Method: Measured endogenous rates of respiration reflect the net balance between rates of energy utilization, energy production, and mitochondrial uncoupling. This was followed by induction of resting (State 4o) respiration with the addition of 1 uM oligomycin to inhibit ATP synthase. State 4 respiration is primarily determined by the rate of proton leak across the inner mitochondrial membrane. Maximal respiration was then assessed by the addition of 300 nM FCCP, a chemical uncoupler of oxidative phosphorylation. In intact cells, this rate reflects the maximal rates of substrate oxidation and electron transport chain activity. An increase in maximal rates can reflect changes in the regulation or expression level of oxidative enzymes, electron transport chain components, or total mitochondrial mass. […] As a control, nonmitochondrial O2 consumption was measured after the addition of 100 nM rotenone and 100 nM myxothiazol to completely block the respiratory chain.
Respiration of the intact cells was measured in unbuffered DMEM containing 10 mM glucose, 10 mM pyruvate, and 2 mM glutamine. In panel A, endogenous respiration was measured on HSKM cells, followed by state 4 (resting) respiration with the addition of 1 uM oligomycin (indicated as ‘A’), and then maximal rates were measured after the addition of 300 nM FCCP, a chemical uncoupler (indicated as ‘B’). […]

[4] = tested on: electron transport chain proteins; assay: Western blot of mitochondrial electron transport chain proteins in C2C12 cells; assay type: cell-based, mouse; conditions: 1 μM, 48 hours
Text: Western blots of cell lysates were used to assess levels of mitochondrial to determine if improved respiration is due to enhanced mitochondrial biogenesis.

Row | Compound | reduction of infarct size vs. controls [1] [%] | effect on calcium-induced mitochondrial damage (swelling) [2] | stimulating mitochondrial function (maximal, uncoupler-stimulated respiration) [3] | expression level of the 20 kDa subunit of complex I [4]
1 | O=C(NCCO[N+](=O)[O-])c1cccnc1 [nicorandil, N-[2-(Nitroxy)ethyl]-3-pyridinecarboxamide] | 37 | can limit | active | –
2 | Oc1cc(O)c2c(c1)O[C@H](c1ccc(O)c(O)c1)[C@H](O)C2 [Epicatechin, (−)-epicatechin] | 27 | – | – | –
3 | catechin | – | – | active | clearly increased
